# Calls of active or inactive are those of the source. No cut-off for these calls is given here.
# What was measured:
# [1] = target: T1, Inhibitor of nuclear factor kappa-B kinase subunit epsilon (Homo sapiens, UniProt Q14164)
# T1 sequence (Q14164 whole entry): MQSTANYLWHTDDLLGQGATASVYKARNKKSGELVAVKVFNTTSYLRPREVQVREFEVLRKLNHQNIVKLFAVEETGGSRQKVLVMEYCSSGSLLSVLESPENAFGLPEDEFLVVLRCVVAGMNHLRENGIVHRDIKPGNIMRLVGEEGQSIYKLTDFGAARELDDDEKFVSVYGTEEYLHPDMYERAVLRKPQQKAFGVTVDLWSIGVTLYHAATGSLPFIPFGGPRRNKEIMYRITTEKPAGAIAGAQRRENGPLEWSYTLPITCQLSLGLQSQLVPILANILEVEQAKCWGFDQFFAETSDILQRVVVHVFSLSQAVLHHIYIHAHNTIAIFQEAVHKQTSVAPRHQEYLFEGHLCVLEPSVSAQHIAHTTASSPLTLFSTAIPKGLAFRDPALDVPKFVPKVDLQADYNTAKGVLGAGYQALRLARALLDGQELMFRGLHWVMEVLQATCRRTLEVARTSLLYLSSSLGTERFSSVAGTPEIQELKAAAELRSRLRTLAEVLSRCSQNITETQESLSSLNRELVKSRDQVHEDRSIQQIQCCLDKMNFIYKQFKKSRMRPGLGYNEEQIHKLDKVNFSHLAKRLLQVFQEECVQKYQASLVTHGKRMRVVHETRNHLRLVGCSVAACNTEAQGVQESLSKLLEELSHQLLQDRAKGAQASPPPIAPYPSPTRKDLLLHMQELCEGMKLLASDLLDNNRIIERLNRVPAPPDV
# Description: Inhibition of human recombinant FLAG-IKKepsilon by TR-FRET assay
# [2] = target: T2, Inhibitor of nuclear factor kappa-B kinase subunit beta (Homo sapiens, UniProt O14920)
# T2 sequence (O14920 whole entry): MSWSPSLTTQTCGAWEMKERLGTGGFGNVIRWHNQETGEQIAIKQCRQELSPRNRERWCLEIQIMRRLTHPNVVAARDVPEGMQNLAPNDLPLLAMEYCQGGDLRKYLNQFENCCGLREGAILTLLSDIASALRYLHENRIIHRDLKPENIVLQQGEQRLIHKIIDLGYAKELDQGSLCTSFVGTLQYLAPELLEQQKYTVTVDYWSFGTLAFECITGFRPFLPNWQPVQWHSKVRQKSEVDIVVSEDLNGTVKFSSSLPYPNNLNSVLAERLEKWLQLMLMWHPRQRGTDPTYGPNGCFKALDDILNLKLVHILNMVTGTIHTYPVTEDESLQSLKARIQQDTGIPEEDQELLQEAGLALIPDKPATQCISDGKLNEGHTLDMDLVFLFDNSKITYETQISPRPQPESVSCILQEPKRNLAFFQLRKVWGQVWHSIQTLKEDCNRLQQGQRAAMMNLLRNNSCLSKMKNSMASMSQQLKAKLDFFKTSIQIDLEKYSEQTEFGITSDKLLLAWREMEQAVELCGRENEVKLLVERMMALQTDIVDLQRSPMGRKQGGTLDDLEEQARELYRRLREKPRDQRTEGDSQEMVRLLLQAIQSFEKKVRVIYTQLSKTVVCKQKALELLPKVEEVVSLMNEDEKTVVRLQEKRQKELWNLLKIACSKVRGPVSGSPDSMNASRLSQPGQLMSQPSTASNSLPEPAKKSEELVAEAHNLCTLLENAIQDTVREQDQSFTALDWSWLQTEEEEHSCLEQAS
# Description: Inhibition of human recombinant GST-IKKbeta by TR-FRET assay
# [3] = Inhibition of LPS-stimulated IL6 release in PBMC; type: functional; details: Homo sapiens
# PBMC = assay: Inhibition of LPS-stimulated TNFalpha release in PBMC; type: functional, cell-based; details: Homo sapiens
# Fibroblast = assay: Inhibition of NF-kappaB translocation in TNF-alpha-induced human lung fibroblast cells; type: functional, cell-based
IC50 [1] [µM],IC50 [2] [µM],IC50 [3] [µM],SMILES,IC50 (PBMC) [µM],Activity (Fibroblast)
> 15.8,1,,CNS(=O)(=O)c1ccc(-c2cc(-c3ccccc3)cc(C(N)=O)c2O)cc1,,
> 15.8,0.251,,COCCCNNS(=O)(=O)c1ccc(-c2cc(-c3ccccc3)cc(C(N)=O)c2N)cc1,,
,0.158,,CS(=O)(=O)c1ccc(-c2cc(C(N)=O)c(N)c(-c3ccc(S(N)(=O)=O)cc3)c2)cc1,,
,> 15.8,,COc1cc2ncn(-c3cc(OCc4ccccc4S(C)(=O)=O)c(C#N)s3)c2cc1OC [GSK-319347A],,
> 15.8,0.316,,NC(=O)c1cc(-c2ccccc2)cc(-c2ccc(S(=O)(=O)NNCCCN3CCOCC3)cc2)c1N,,
,> 15.8,,COc1ccc(-c2ccncc2)cc1C(N)=O [GSK-605714A],,
> 15.8,> 15.8,,CN(C)c1cccc(-c2cc(-c3ccccc3)cc(C(N)=O)c2N)c1,,
,7.94,,CS(=O)(=O)Nc1cccc(-c2cc(-c3ccccc3)cc(C(N)=O)c2N)c1,,
> 15.8,0.251,,NC(=O)c1cc(-c2ccccc2)cc(-c2ccc(S(=O)(=O)NNCCN3CCCC3)cc2)c1N,,
> 15.8,1.58,,NC(=O)c1cc(-c2ccc(Cl)cc2)cc(-c2ccc(S(N)(=O)=O)cc2)c1O,,
> 15.8,> 15.8,,NC(=O)c1cc(-c2ccc(F)cc2)ccc1N,,
,0.398,,CS(=O)(=O)c1ccc(-c2cc(C(N)=O)c(N)c(-c3ccc(S(=O)(=O)N4CCCC4)cc3)c2)cc1,,
,> 15.8,,CNC(=O)c1cc(-c2ccc(F)cc2)cc(-c2ccc(S(=O)(=O)N3CCCC3)cc2)c1N [GSK-635416A],,
> 15.8,0.316,,NC(=O)c1cc(-c2ccccc2)cc(-c2ccc(S(=O)(=O)NNC3CC3)cc2)c1N,,
> 15.8,7.94,,CN(C)S(=O)(=O)c1ccc(-c2cc(-c3ccncc3)cc(C(N)=O)c2O)cc1,,
> 15.8,1.58,,CS(=O)(=O)Nc1ccc(-c2cc(-c3ccc(Cl)cc3)cc(C(N)=O)c2N)cc1,,
,> 15.8,,COc1c(C(N)=O)cc(-c2ccc(Cl)cc2)cc1-c1ccc(S(N)(=O)=O)cc1 [GSK-711701A],,

IC50 [1] [µM],IC50 [2] [µM],IC50 [3] [µM],SMILES,IC50 (PBMC) [µM],Activity (Fibroblast)
> 15.8,15.8,,NC(=O)c1cc(-c2ccccc2)ccc1N,,
> 15.8,0.316,,CN(C)CCCNNS(=O)(=O)c1ccc(-c2cc(-c3ccccc3)cc(C(N)=O)c2N)cc1,,
1.58,0.251,,NC(=O)c1cc(-c2ccncc2)cc(-c2ccc(S(N)(=O)=O)cc2)c1N,,
> 15.8,0.2,,NC(=O)c1cc(-c2ccc(F)cc2)cc(-c2ccc(S(N)(=O)=O)cc2)c1N,,
3.98,3.98,,NC(=O)c1cc(-c2ccncc2)cc(-c2ccccc2)c1N [GSK-625137A],,
> 15.8,1.58,,CS(=O)(=O)Nc1ccc(-c2cc(-c3ccccc3)cc(C(N)=O)c2N)cc1 [GSK-586581A],,
> 15.8,0.158,,NCCNNS(=O)(=O)c1ccc(-c2cc(-c3ccccc3)cc(C(N)=O)c2N)cc1,,
> 15.8,0.1,2,NC(=O)c1cc(-c2ccc(Cl)cc2)cc(-c2ccc(S(N)(=O)=O)cc2)c1N,0.794,Active
> 15.8,3.98,,NC(=O)c1cc(-c2ccccc2)cc(-c2ccc(CS(N)(=O)=O)cc2)c1N,,
> 15.8,0.251,,NC(=O)c1cc(-c2ccccc2)cc(-c2ccc(S(N)(=O)=O)cc2)c1N,,
,> 15.8,,COc1c(C(N)=O)cc(-c2ccncc2)cc1-c1ccccc1,,
> 15.8,1.58,,NC(=O)c1cc(-c2ccc(F)cc2)cc(-c2ccncc2)c1N [GSK-620503A],,
,> 15.8,,CNC(=O)c1cc(-c2ccc(F)cc2)cc(-c2ccc(S(C)(=O)=O)cc2)c1N,,
,> 15.8,,COc1c(C(N)=O)cc(-c2ccccc2)cc1-c1ccncc1,,
> 15.8,0.631,,NC(=O)c1cc(-c2ccc(F)cc2)cc(-c2ccc(S(=O)(=O)N3CCCC3)cc2)c1N,,
> 15.8,7.94,,NC(=O)c1cc(-c2ccccc2)cc(-c2cccc(S(N)(=O)=O)c2)c1N,,
